Experimental data published in patent US20120028995A1, “NOVEL COMPOUNDS FOR MEDICAL USE AS PEPTIDASE EFFECTORS” (IMTM GMBH, priority 2010, published 2012).

Assays:
[1] = biological target: T1, purified, recombinant human DPIV (Homo sapiens, UniProt P27487); test: Inhibition of enzymatic activity of DPIV (fluorogenic substrate hydrolysis); assay type: biochemical; details: highest test item concentration 25 μM
T1 construct: made in house; host or cells: Sf9 insect cells
Procedure, shortened: (§1)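 Recombinant human DPIV (Sf9-derived, approx. 1 nM) and recombinant DP8/DP9 in 0.05M Tris/HCl pH 7.5 with 0.05% Triton, 0.05% BSA, 2 mM MgCl2. Substrates were Gly-Pro-AMC at 50 μM (ex 380/em 460 nm, read at 0–120 min) or (Ala-Pro)2-R110 at 1 μM (ex 488/em 530 nm). IC50 from ≥16 log2 dilutions, top 25 μM.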

[2] = biological target: T2, aminopeptidase N (APN), purified recombinant human enzyme (Homo sapiens, UniProt P15144); test: Inhibition of enzymatic activity of aminopeptidase N (fluorogenic substrate hydrolysis); assay type: biochemical; details: highest test item concentration 25 μM
T2 construct: made in house; host or cells: ECV cells (transfected)
T2 sequence (P15144 whole entry): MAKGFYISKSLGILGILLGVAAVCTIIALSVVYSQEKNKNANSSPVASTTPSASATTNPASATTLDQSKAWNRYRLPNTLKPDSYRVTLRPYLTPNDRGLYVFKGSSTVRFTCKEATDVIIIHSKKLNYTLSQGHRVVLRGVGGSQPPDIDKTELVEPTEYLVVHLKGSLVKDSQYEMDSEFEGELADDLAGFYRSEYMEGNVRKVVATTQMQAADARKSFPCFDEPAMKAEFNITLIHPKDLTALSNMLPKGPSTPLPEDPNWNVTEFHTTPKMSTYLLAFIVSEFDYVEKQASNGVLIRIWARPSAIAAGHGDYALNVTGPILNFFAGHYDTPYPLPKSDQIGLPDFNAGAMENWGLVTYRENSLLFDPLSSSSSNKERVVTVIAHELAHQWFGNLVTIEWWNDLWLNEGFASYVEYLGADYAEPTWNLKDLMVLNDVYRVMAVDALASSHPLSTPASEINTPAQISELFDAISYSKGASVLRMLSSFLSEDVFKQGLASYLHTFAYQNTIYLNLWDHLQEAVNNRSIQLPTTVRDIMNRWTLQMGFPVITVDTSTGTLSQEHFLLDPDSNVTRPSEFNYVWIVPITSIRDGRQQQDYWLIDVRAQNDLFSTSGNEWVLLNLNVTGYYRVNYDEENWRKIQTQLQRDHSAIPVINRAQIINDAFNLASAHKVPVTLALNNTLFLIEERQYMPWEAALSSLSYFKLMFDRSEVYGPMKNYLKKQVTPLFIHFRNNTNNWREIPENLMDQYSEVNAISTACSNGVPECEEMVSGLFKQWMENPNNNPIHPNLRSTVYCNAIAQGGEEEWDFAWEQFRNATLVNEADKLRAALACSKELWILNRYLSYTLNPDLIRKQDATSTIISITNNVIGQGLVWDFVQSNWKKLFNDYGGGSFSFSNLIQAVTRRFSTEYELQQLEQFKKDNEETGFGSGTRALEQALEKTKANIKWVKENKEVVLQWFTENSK
Procedure, shortened: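 Recombinant human APN from transfected ECV cells was used at approx. 1 nM final, in 0.05M TRIS/HCl pH 7.5 with 0.05% Triton, 0.05% BSA and 2 mM MgCl2. Fluorescence release was read from H-Ala-AMC (50 μM) or (Ala-)2-R110 (1 μM). IC50 values came from at least 16 log2 dilutions starting at 25 μM top concentration.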

[3] = system: purified, recombinant DP8 and DP9; test: Inhibition of enzymatic activity of DP8/9; assay type: biochemical; details: highest test item concentration 25 μM
Procedure, shortened: as §1

[4] = biological target: T3, cytosolic aminopeptidase (cAAP) purified from Jurkat cells (Homo sapiens, UniProt P55786); test: Inhibition of enzymatic activity of cytosolic aminopeptidase (cAAP); assay type: biochemical; details: highest test item concentration 25 μM
T3 construct: The cytosolic aminopeptidase (cAAP) was purified from Jurkat cells; endogenous in cells; host or cells: Jurkat cells (enzyme purified from them)
T3 sequence (P55786 whole entry): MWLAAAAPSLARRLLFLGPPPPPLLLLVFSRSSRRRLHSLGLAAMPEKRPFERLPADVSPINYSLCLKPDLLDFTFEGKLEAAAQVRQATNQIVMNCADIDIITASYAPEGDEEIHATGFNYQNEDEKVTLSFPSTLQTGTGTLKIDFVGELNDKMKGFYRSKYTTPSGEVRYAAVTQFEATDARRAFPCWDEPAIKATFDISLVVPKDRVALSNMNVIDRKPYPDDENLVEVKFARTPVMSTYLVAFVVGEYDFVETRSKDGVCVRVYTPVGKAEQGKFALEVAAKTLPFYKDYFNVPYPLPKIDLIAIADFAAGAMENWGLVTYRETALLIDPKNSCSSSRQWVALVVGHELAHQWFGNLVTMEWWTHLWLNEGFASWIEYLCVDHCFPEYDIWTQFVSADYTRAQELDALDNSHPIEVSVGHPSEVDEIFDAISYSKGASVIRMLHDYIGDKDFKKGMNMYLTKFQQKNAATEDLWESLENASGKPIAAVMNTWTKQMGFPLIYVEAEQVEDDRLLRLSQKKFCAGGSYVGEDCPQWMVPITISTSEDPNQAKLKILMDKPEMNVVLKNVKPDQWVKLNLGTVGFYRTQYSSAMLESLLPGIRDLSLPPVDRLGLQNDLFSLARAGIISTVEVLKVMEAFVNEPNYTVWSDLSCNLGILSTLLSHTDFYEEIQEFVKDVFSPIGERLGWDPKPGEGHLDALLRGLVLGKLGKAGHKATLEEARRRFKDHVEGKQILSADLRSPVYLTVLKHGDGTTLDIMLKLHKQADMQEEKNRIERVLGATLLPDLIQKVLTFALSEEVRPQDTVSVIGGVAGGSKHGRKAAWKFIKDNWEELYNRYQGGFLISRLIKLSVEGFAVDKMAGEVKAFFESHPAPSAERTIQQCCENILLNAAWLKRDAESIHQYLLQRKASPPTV

T lymphocytes (T cells) = test: Suppression of DNA synthesis of PHA-stimulated T lymphocytes; assay type: cell-based; details: PHA-stimulated human T cells, 48 hours, tritium thymidine incorporation; read-out: Supp. DNA Synt. T-cell IC50
Procedure, shortened: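 Healthy-donor PBMC and nylon-wool-purified T cells in serum-free AIMV medium were stimulated 48 h with 1 µg/ml PHA, with compound (0.1–250 µM) present throughout. IC50 was estimated graphically from proliferation relative to PHA-activated T cells without compound.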

NHEK cells = test: Inhibition of DNA synthesis and proliferation of normal human epidermal keratinocytes (NHEK); assay type: cell-based; details: EGF-stimulated NHEK, 48 hours, BrdU incorporation; read-out: Supp. DNA Synt. NHEK IC50
Procedure, shortened: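 Primary human keratinocytes were grown 48 h in serum-free medium with EGF and pituitary extract, with compounds at 0.1–100 μM. DNA synthesis was measured by BrdU incorporation ELISA relative to untreated controls (100%), and IC50 was derived graphically.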

SZ95 cells = test: Inhibition of DNA synthesis and proliferation of immortalized human sebocytes SZ95; assay type: cell-based; details: EGF-stimulated SZ95 sebocytes, tritium thymidine incorporation; read-out: Supp. DNA Synt. SZ95 IC50
Procedure, shortened: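 EGF-stimulated SZ95 sebocytes in serum-free Sebomed Complete, treated with test items at 0.1–100 μM. DNA synthesis read by 3H-thymidine incorporation (beta counting), expressed relative to untreated cells (100%). IC50 for proliferation suppression derived graphically.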

T1 sequence (P27487 whole entry): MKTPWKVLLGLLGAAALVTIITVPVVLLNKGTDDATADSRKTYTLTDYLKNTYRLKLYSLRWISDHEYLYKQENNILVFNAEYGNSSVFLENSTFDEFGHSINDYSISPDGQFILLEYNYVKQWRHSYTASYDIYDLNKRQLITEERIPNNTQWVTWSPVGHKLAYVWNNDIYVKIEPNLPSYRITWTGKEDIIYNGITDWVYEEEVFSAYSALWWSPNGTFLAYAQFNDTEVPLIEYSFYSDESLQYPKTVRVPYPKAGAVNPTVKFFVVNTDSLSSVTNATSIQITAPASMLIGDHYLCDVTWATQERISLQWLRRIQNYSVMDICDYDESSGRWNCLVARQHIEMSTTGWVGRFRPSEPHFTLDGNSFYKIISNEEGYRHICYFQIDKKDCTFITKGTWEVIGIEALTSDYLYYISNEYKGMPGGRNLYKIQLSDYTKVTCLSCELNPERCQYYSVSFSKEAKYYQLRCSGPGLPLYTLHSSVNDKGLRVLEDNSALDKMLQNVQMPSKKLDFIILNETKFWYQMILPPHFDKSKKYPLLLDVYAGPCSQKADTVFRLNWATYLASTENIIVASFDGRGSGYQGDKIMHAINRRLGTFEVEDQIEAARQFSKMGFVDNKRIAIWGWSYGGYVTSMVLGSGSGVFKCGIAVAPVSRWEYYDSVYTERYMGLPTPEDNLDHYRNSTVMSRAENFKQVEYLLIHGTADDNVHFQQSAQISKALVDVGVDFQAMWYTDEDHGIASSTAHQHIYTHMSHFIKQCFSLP

## CC(C)(CNC(=O)CC(Cc1cc(F)ccc1F)NC(=O)OC(C)(C)C)CNC(=O)C(O)C(COCc1ccccc1)NC(=O)OC(C)(C)C (stereo not shown) [Compound C19.004]
[1]
  meas. IC50 (DPIV): no in- hibition
[2]
  meas. IC50 (APN): no in- hibition
[3]
  meas. IC50 (DP8/9): no in- hibition
[4]
  meas. IC50 (cAAP): no in- hibition
T lymphocytes (T cells)
  IC50: 9.7 µM
NHEK cells
  IC50: 19.8 µM
SZ95 cells
  IC50: 18.3 µM
